Test results from ChEMBL document CHEMBL4354827, “Discovery of Novel, Potent, Brain-Permeable, and Orally Efficacious Positive Allosteric Modulator of α7 Nicotinic Acetylcholine Receptor [4-(5-(4-Chlorophenyl)-4-methyl-2-propionylthiophen-3-yl)benzenesulfonamide]: Structure-Activity Relationship and Preclinical Characterization” (J Med Chem, 2020).
Blank lines part the entries; values can stand above or below the molecule they belong to.

Columns and labels:
[1] = Drug metabolism in rat liver microsomes assessed as metabolic rate at 1 uM preincubated for 5 mins followed by NADPH addition after 30 mins by LC-MS/MS analysis; type: ADME, Microsome; conditions: 0.5 h
[2] = Half life in Beagle dog at 1 mg/kg, iv after 0.083 to 144 hrs by LC-MS/MS analysis; type: ADME, organism-based, Canis lupus familiaris; conditions: in vivo
[3] = Tmax in Beagle dog at 1 mg/kg, iv after 0.083 to 144 hrs by LC-MS/MS analysis; type: ADME, organism-based, Canis lupus familiaris; conditions: in vivo
[4] = molecular target: Neuronal acetylcholine receptor subunit alpha-7 (Homo sapiens, UniProt P36544); test: Positive allosteric modulatory activity against alpha7 nAChR in human IMR-32 cells assessed as potentiation of PNU-282987-induced Ca2+ […] at 1 uM by FLIPR assay relative to control; type: cell-based
Neuronal acetylcholine receptor subunit alpha-7, sequence (P36544 whole entry): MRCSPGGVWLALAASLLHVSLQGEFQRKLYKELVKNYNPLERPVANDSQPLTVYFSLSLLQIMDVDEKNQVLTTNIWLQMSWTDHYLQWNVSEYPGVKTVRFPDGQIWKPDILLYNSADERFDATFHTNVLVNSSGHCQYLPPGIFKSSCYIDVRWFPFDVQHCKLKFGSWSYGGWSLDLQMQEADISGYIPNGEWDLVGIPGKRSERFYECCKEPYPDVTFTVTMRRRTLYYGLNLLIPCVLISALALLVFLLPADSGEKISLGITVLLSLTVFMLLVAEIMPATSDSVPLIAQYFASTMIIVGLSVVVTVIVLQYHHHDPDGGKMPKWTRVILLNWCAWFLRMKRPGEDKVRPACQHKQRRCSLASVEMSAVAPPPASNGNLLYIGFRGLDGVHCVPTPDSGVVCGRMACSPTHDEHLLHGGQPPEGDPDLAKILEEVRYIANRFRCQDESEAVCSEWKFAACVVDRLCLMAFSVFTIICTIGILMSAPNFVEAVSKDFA

[5] = Cmax in Wistar rat at 10 mg/kg, po after 0.25 to 144 hrs by LC-MS/MS analysis; type: ADME, organism-based; design: dose 10 mg/kg, route oral; conditions: in vivo
[6] = Cmax in Wistar rat at 1 mg/kg, iv after 0.083 to 144 hrs by LC-MS/MS analysis; type: ADME, organism-based; design: dose 1 mg/kg, route intravenous; conditions: in vivo
[7] = Clearance in Wistar rat at 1 mg/kg, iv after 0.083 to 144 hrs by LC-MS/MS analysis; type: ADME, organism-based; conditions: Wistar, in vivo
[8] = Protein binding in rat plasma at 5 uM incubated for 16 hrs under shaking condition by LC/MS/MS based rapid equilibrium dialysis method; type: ADME, cell-free; conditions: read-out: PPB (converted)
[9] = Volume of distribution at steady state in Wistar rat at 1 mg/kg, iv after 0.083 to 144 hrs by LC-MS/MS analysis; type: ADME, organism-based; conditions: in vivo, read-out: Vdss
[10] = Clearance in Beagle dog at 1 mg/kg, iv after 0.083 to 144 hrs by LC-MS/MS analysis; type: ADME, organism-based, Canis lupus familiaris; conditions: Beagle, in vivo
[11] = AUClast in Beagle dog at 1 mg/kg, iv after 0.083 to 144 hrs by LC-MS/MS analysis; type: ADME, organism-based, Canis lupus familiaris; design: dose 1 mg/kg, time 0.083-144 hr, route intravenous; conditions: in vivo
[12] = Half life in Wistar rat at 1 mg/kg, iv after 0.083 to 144 hrs by LC-MS/MS analysis; type: ADME, organism-based; conditions: in vivo
[13] = Metabolic stability in dog liver microsomes assessed as compound remaining at 1 uM preincubated for 5 mins followed by NADPH addition and measured after 30 mins by LC-MS/MS analysis; type: ADME, Canis lupus familiaris, Microsome; conditions: read-out: Stability
[14] = Oral bioavailability in Beagle dog at 10 mg/kg after 0.25 to 144 hrs by LC-MS/MS analysis; type: ADME, organism-based, Canis lupus familiaris; conditions: in vivo
[15] = Oral bioavailability in Wistar rat at 10 mg/kg after 0.25 to 144 hrs by LC-MS/MS analysis; type: ADME, organism-based; conditions: in vivo
[16] = Drug metabolism in mouse liver microsomes assessed as metabolic rate at 1 uM preincubated for 5 mins followed by NADPH addition after 30 mins by LC-MS/MS analysis; type: ADME, Microsome; conditions: 0.5 h
[17] = Cmax in Beagle dog at 10 mg/kg, po after 0.25 to 144 hrs by LC-MS/MS analysis; type: ADME, organism-based, Canis lupus familiaris; design: dose 10 mg/kg, route oral; conditions: in vivo
[18] = Metabolic stability in monkey liver microsomes assessed as compound remaining at 1 uM preincubated for 5 mins followed by NADPH addition and measured after 30 mins by LC-MS/MS analysis; type: ADME, Macaca mulatta, Microsome; conditions: rhesus monkey, read-out: Stability
[19] = Cmax in Beagle dog at 1 mg/kg, iv after 0.083 to 144 hrs by LC-MS/MS analysis; type: ADME, organism-based, Canis lupus familiaris; design: dose 1 mg/kg, route intravenous; conditions: in vivo
[20] = Drug metabolism in monkey liver microsomes assessed as metabolic rate at 1 uM preincubated for 5 mins followed by NADPH addition after 30 mins by LC-MS/MS analysis; type: ADME, Macaca mulatta, Microsome; conditions: rhesus monkey, 0.5 h
[21] = Tmax in Wistar rat at 10 mg/kg, po after 0.25 to 144 hrs by LC-MS/MS analysis; type: ADME, organism-based; conditions: in vivo
[22] = AUC (0 to 144 hrs) in Wistar rat at 10 mg/kg, po after 0.25 to 144 hrs by LC-MS/MS analysis; type: ADME, organism-based; design: dose 10 mg/kg, time < 144 hr, route oral; conditions: in vivo
[23] = Metabolic stability in rat liver microsomes assessed as compound remaining at 1 uM preincubated for 5 mins followed by NADPH addition and measured after 30 mins by LC-MS/MS analysis; type: ADME, Microsome; conditions: read-out: Stability
[24] = Metabolic stability in mouse liver microsomes assessed as compound remaining at 1 uM preincubated for 5 mins followed by NADPH addition and measured after 30 mins by LC-MS/MS analysis; type: ADME, Microsome; conditions: read-out: Stability
[25] = Tmax in Wistar rat at 1 mg/kg, iv after 0.083 to 144 hrs by LC-MS/MS analysis; type: ADME, organism-based; conditions: in vivo
[26] = Metabolic stability in human pooled liver microsomes assessed as compound remaining at 1 uM preincubated for 5 mins followed by NADPH addition and measured after 30 mins by LC-MS/MS analysis; type: ADME, Microsome; conditions: read-out: Stability
[27] = AUC (0 to 144 hrs) in Wistar rat at 1 mg/kg, iv after 0.083 to 144 hrs by LC-MS/MS analysis; type: ADME, organism-based; design: time < 144 hr, dose 1 mg/kg, route intravenous; conditions: in vivo
[28] = Tmax in Beagle dog at 10 mg/kg, po after 0.25 to 144 hrs by LC-MS/MS analysis; type: ADME, organism-based, Canis lupus familiaris; conditions: in vivo
[29] = AUClast in Beagle dog at 10 mg/kg, po after 0.25 to 144 hrs by LC-MS/MS analysis; type: ADME, organism-based, Canis lupus familiaris; design: time upper 144 hr, dose 10 mg/kg, time lower 0.25 hr, route oral; conditions: in vivo
[30] = Drug metabolism in dog liver microsomes assessed as metabolic rate at 1 uM preincubated for 5 mins followed by NADPH addition after 30 mins by LC-MS/MS analysis; type: ADME, Canis lupus familiaris, Microsome; conditions: 0.5 h
[31] = Drug metabolism in human pooled liver microsomes assessed as metabolic rate at 1 uM preincubated for 5 mins followed by NADPH addition after 30 mins by LC-MS/MS analysis; type: ADME, Microsome; conditions: 0.5 h
[32] = Volume of distribution at steady state in Beagle dog at 1 mg/kg, iv after 0.083 to 144 hrs by LC-MS/MS analysis; type: ADME, organism-based, Canis lupus familiaris; conditions: in vivo, read-out: Vdss
[33] = Protein binding in human plasma at 5 uM incubated for 16 hrs under shaking condition by LC/MS/MS based rapid equilibrium dialysis method; type: ADME, cell-free; conditions: read-out: PPB (converted)

Drug metabolism [1]: 0.01 nmol/min/mg
half-life [2]: 120 min
Tmax [3]: 15 min
fold change (FC) [4]: 22
Cmax [5]: 3000 nM
Cmax [6]: 900 nM
clearance [7]: 31 mL/min/kg
fraction unbound at 16 h, 5 µM [8]: 0.003
Vd [9]: 3 L/kg
clearance [10]: 12 mL/min/kg
AUC(0-t) [11]: 3.2 µM·h
half-life [12]: 84 min
remaining at 0.5 h, 1 µM [13]: 84%
bioavailability [14]: 4%
bioavailability [15]: 63%
Drug metabolism [16]: 0.03 nmol/min/mg
Cmax [17]: 400 nM
remaining at 0.5 h, 1 µM [18]: 67%
Cmax [19]: 2300 nM
Drug metabolism [20]: 0.05 nmol/min/mg
Tmax [21]: 2 h
AUC(0-t) at 144 h [22]: 8.2 µM·h
remaining at 0.5 h, 1 µM [23]: 97%
remaining at 0.5 h, 1 µM [24]: 78%
Tmax [25]: 4.8 min
remaining at 0.5 h, 1 µM [26]: 81%
AUC(0-t) at 144 h [27]: 1.3 µM·h
Tmax [28]: 1.17 h
AUC(0-t) [29]: 1.3 µM·h
Drug metabolism [30]: 0.02 nmol/min/mg
Drug metabolism [31]: 0.03 nmol/min/mg
Vd [32]: 2 L/kg
fraction unbound at 16 h, 5 µM [33]: 0.002
SMILES: CCC(=O)c1sc(-c2ccc(OC)cc2)c(C)c1-c1ccc(S(N)(=O)=O)cc1

fold change (FC) [4]: 1
SMILES: CCC(=O)c1sc(-c2ccncc2)c(C)c1-c1ccc(S(N)(=O)=O)cc1

fold change (FC) [4]: 1
SMILES: CCCN(CCO)C(=O)c1sc(-c2ccc(Cl)cc2)c(C)c1-c1ccc(S(N)(=O)=O)cc1

fold change (FC) [4]: 1
SMILES: CCC(=O)c1sc(-c2ccc(C(C)(C)C)cc2)c(C)c1-c1ccc(S(N)(=O)=O)cc1

fold change (FC) [4]: 7
SMILES: CC(=O)c1sc(-c2ccc(Cl)cc2)c(C)c1-c1ccc(S(N)(=O)=O)cc1

fold change (FC) [4]: 12
SMILES: CCC(=O)c1sc(-c2ccc(Cl)cc2Cl)c(C)c1-c1ccc(S(N)(=O)=O)cc1

fold change (FC) [4]: 1
SMILES: CCC(=O)c1sc(-c2cccc(Cl)c2)c(C)c1-c1ccc(S(N)(=O)=O)cc1

fold change (FC) [4]: 1
SMILES: Cc1c(-c2ccc(Cl)cc2)sc(C(=O)N2CCCCC2)c1-c1ccc(S(N)(=O)=O)cc1

fold change (FC) [4]: 7
SMILES: CCC(=O)c1sc(-c2ccc(C3CC3)cc2)c(C)c1-c1ccc(S(N)(=O)=O)cc1

fold change (FC) [4]: 1
SMILES: Cc1c(-c2ccc(Cl)cc2)sc(C(=O)N(C)C)c1-c1ccc(S(N)(=O)=O)cc1

fold change (FC) [4]: 1
SMILES: CCC(=O)c1sc(-c2ccoc2)c(C)c1-c1ccc(S(N)(=O)=O)cc1

fold change (FC) [4]: 8.7
SMILES: CCC(=O)c1sc(-c2ccc(F)cc2)c(C)c1-c1ccc(S(N)(=O)=O)cc1

fold change (FC) [4]: 2.4
SMILES: CCC(=O)c1sc(-c2ccccc2)c(C)c1-c1ccc(S(N)(=O)=O)cc1

fold change (FC) [4]: 19
SMILES: CCC(=O)c1sc(-c2ccc(N(C)C)cc2)c(C)c1-c1ccc(S(N)(=O)=O)cc1

fold change (FC) [4]: 1
SMILES: CCC(=O)c1sc(-c2ccccc2Cl)c(C)c1-c1ccc(S(N)(=O)=O)cc1

fold change (FC) [4]: 6
SMILES: CCOc1ccc(-c2sc(C(=O)CC)c(-c3ccc(S(N)(=O)=O)cc3)c2C)cc1

fold change (FC) [4]: 15.3
SMILES: CCC(=O)c1sc(-c2ccc(C(F)(F)F)cc2)c(C)c1-c1ccc(S(N)(=O)=O)cc1
